Measured values reported in patent publication US10800732B2, “Substituted malonamides and their use as antibacterial drugs” (National Taiwan University, priority 2015, dated 2020).
Values after ≈ are worked out from the molar mass of the structure shown.

Assays:
[1] = test system: Acinetobacter baumannii BCRC 80276; assay: MIC, Acinetobacter baumannii; format: cell-based; conditions: BCRC80276
[2] = test system: MSSA ATCC 29213 or MRSA ATCC 33592; assay: Survival of MSSA- or MRSA-infected C. elegans; format: in vivo, Caenorhabditis elegans; conditions: 2- to 8-folds of MIC in S-medium, versus DMSO control
Experimental: FIG. 2. SC5005 protects C. elegans from S. aureus infection. Effect of SC78 and SC5005 on the survival of MSSA- or MRSA-infected C. elegans was assessed. The glp-4(bn2) C. elegans were fed on E. coli (OP50), MSSA (ATCC 29213) or MRSA (ATCC 33592) followed by exposing to SC78 or SC5005 at concentrations of 2-, 4-, 8-folds of respective MIC in S-medium. The survival of worms was monitored daily till the end of the study. The survival of animals fed with E. coli (OP50) and receiving DMSO only was served as a control to show the normal life-span of C. elegans.
Caenorhabditis elegans has been broadly used as a model host for the studies of human infectious diseases, including infections caused by S. aureus. To investigate whether SC78 and SC5005 can suppress the infection of S. aureus in C. elegans, worms were infected with MSSA ATCC 29213 or MRSA ATCC 33592 followed by exposing to individual drugs at concentrations of 2- to 8-folds of respective MIC in S-medium. Control groups were treated with DMSO at concentration equal to that of drug treated groups (final concentration, 0.1%).

MRSA (ATCC 43300) [3] = assay: MIC, MRSA ATCC 43300; format: cell-based, methicillin-resistant Staphylococcus aureus; conditions: MRSA (ATCC 43300)
MRSA (ATCC 33592) = assay: Survival of MRSA-infected C57BL/6 mice, intraperitoneal administration; conditions: surviving mice, 10 mg/kg
Experimental: (A) Effect of intraperitoneal administration of SC5005 on the survival of MRSA-infected mice. Female C57BL/6 mice were inoculated intraperitoneally with 5×10^4 CFU of MRSA (ATCC 33592). Infected mice received intraperitoneal injection of 1 mg/kg (filled inverted triangles), 3 mg/kg (filled triangles) and 10 mg/kg (filled squares) SC5005 or vehicle (mock) (filled circles) once per day for three consecutive days. Survival rates, as represented by Kaplan-Meier curves, are shown for the mock and SC5005 treatment groups. *P<0.05, for the difference between treated groups and the control group. (B) Body weight changes in individual vehicle or SC5005-treated MRSA-infected mice. Each line represents an individual mouse. The black lines indicate mice that survived until the end of the study and the grey lines indicate mice that were euthanized during the study.
To further evaluate the therapeutic potential of SC5005 against MRSA infection, inbred C57BL/6 mice were intraperitoneally injected with a lethal dose (5×10^4 CFU) of MRSA (ATCC 33592), followed by intraperitoneal administration of vehicle control or SC5005 (1 mg/kg, 3 mg/kg or 10 mg/kg) at 1 h, 24 h and 48 h post-infection (N=5 for each group).

S. aureus NCTC 8325 [4] = assay: Transmission electron microscopy of cell membrane; format: cell-based, Staphylococcus aureus; conditions: 15 min treatment, 100,000 magnifications
Experimental: FIG. 8. Transmission electron microscopy image of S. aureus after SC5005 treatment. S. aureus NCTC 8325 was treated with (A) mock or (B) SC5005 for 15 min followed by glutaraldehyde (2.5%) fixation and osimium tetraoxide (1%) staining. The membrane integrity was then observed with transmission electron microscopy at 100,000× magnification. The outer black ring marked with CW represents cell wall, and the inner black ring marked with CM represents cell membrane. The arrow points the pore formed in S. aureus cell membrane.
To investigate how SC5005 changes membrane permeability of S. aureus, bacteria cells were treated with SC5005 for 15 min followed by glutaraldehyde (2.5%) fixation and osimium tetraoxide (1%) staining. The membrane of bacteria was then observed by Transmission electron microscopy (TEM) at 100,000 magnifications (FIG. 8). The outer clear black circle is cell wall of S. aureus, and the inner clear black circle is cell membrane of S. aureus. These two circles of control treated S. aureus remain intact, and the cell membrane is undamaged.

human red blood cells = assay: Hemolytic activity; format: cell-based
Experimental: FIG. 9. Hemolytic activities of SC5005 and SC5035 on human red blood cell. Human red blood cells were incubated with SC5005 (A) and SC5035 (B) for 1 h followed by measuring the absorption of RBC released hemoglobin at 540 nm with microplate reader. Cell treated with 1% triton X-100 serves as positive control (P.C.; 100% hemolysis), and those treated with normal saline serves as negative control (N.C.) Bars represent the mean, and error bars represent the SD (n=3).
As data shown above, SC5005 and SC5035 can kill bacteria via forming pore in bacterial membrane. To see whether the pore-forming activity of these two compounds is specific for bacterial membrane, the hemolytic activities of these two agents on human red blood cells were accessed.

MRSA (ATCC 43300) [5] = assay: Minimal biofilm eradication concentration, MRSA in the biofilm; format: cell-based, methicillin-resistant Staphylococcus aureus; conditions: MRSA (ATCC 43300) in the biofilm
Experimental: A biofilm is composed of attached microorganisms enclosed in an extracellular polymeric substance matrix. Bacteria embedded in the biofilm are protected from antibiotic-mediated killing and the immune response. Reports have shown that biofilm formation is an important factor contributing to S. aureus infections of the skin, lung and indwelling medical devices such as catheters. Thus, the effect of SC5005 on MRSA in a biofilm was assayed.

S. aureus NCTC 8325 [6] = assay: Membrane integrity (SYTO 9 / propidium iodide staining); format: cell-based, Staphylococcus aureus; conditions: 4×MIC (Triton X-100: 10%) for 15 minutes
From the text: FIG. 7. Membrane integrity of S. aureus after SC5005, SC5035 and five common antibiotics treatment. […] SYTO 9, a green fluorescence dye, stains chromosome of all bacteria cells, regardless of the membrane integrity. In contrast, propidium iodide (PI), a red fluorescence dye, only stains cell with damaged membrane. Thus, bacteria cell with intact membrane can only be stained by SYTO 9, and cell with perforated membrane will be stained by both fluorescence dyes, showing a yellow color in merged images.
To further validate the action mechanism of SC5005 and SC5035, two fluorescence dyes were used for evaluation of membrane integrity of drug treated S. aureus. The propidium iodide dye only stains cells with perforated membrane, while the SYTO 9 stains all cells in spite of membrane integrity.

MSSA ATCC 29213 = assay: MIC, MSSA ATCC 29213; format: cell-based, Staphylococcus aureus; conditions: Table 6
S. aureus NCTC 8325 [7] = assay: Biosynthesis of macromolecules (3H precursor incorporation); format: cell-based, Staphylococcus aureus; conditions: 4×MIC for 1 h
Experimental: FIG. 5. Effect of SC5005 and SC5035 on the biosynthesis of macromolecules in S. aureus. […] Meanwhile, ofloxacin (1 mg/L), rifampicin (1 mg/L), erythromycin (2 mg/L), and vancomycin (2 mg/L) were used as control inhibitors for the biosynthesis of DNA, RNA, protein and cell wall, respectively. Data are means of three independent experiments. Error bars represent the SD.
To investigate the mode of action of SC5005, a new derivative, SC5035, with better selectivity of antibacterial activity over cytotoxicity was included in the assays. First, the impacts of these two compounds on the biosynthesis of important macromolecules, including DNA, RNA, protein and cell wall, in S. aureus NCTC 8325 were assessed. Bacteria cells were incubated with [^3H]thymidine to assess DNA synthesis, [^3H] uridine to assess RNA synthesis, [^3H] leucine to assess protein synthesis, and [^3H] N-Acetyl-D-glucosamine to assess cell wall synthesis. The ofloxacin, rifampicin, erythromycin and vancomycin were used as control inhibitor for DNA, RNA, protein, and cell wall biosynthesis, respectively. Inhibition of biosynthesis pathway was determined by a reduction in the radial isotope signal of bacteria.

| SMILES | MIC [1] [mg/L] | survival of MSSA- or MRSA-infected worms [2] | MIC (MRSA (ATCC 43300) [3]) [mg/L] | time for body weight to return to pre-infection levels (MRSA (ATCC 33592)) [days] | pore formation in cell membrane (TEM) (S. aureus NCTC 8325 [4]) | hemolysis of RBC (human red blood cells) | MBEC (MRSA (ATCC 43300) [5]) [mg/L] | propidium iodide staining (membrane integrity) (S. aureus NCTC 8325 [6]) | MIC (MSSA ATCC 29213) [mg/L] | incorporation signal in DNA, RNA, protein and cell wall biosynthesis (S. aureus NCTC 8325 [7]) |
| --- | --- | --- | --- | --- | --- | --- | --- | --- | --- | --- |
| O=C(Nc1ccc(Cl)c(C(F)(F)F)c1)Nc1ccc(Cl)c(C(F)(F)F)c1 [SC78] | > 64 | no significant difference was observed in the survival |  |  |  |  |  |  |  |  |
| O=C(Nc1ccc(Cl)c(C(F)(F)F)c1)C(CCCl)C(=O)Nc1ccc(Cl)c(C(F)(F)F)c1 [SC5005] |  | significant increase in the mean survival | 0.5 (≈ 0.958 µM) | 2 to 5 | a pore was observed in the membrane of most bacteria cells | no significant hemolysis | 16 | can be stained by propidium iodide | 0.5 (≈ 0.958 µM) | lower signal in all four macromolecule biosynthesis pathway |
